# Earlier results in US20240285640A1, “COMBINATION THERAPY FOR TREATING PIK3CA-MUTATED CANCER” (ADLAI NORTYE BIOPHARMA CO., LTD., priority 2020, published 2024).
# What was measured:
# [1] = test system: immunosuppressive cells in the tumor microenvironment; conditions: preclinical studies; by inhibiting the PGE2/EP-4 signaling pathway
# colorectal cancer = conditions: combined with radiotherapy and chemotherapy; Wyrwicz et al., ESMO2019
# advanced solid tumors = conditions: phase I FIH, a variety of advanced solid tumors
# [2] = test system: breast cancer caused by PI3K/PIK3CA mutations; conditions: patients; Campone M et al. 2018
SMILES,reduction of immunosuppressive cells in the tumor microenvironment [1],clinical efficacy (colorectal cancer),clinical effect as single drug (advanced solid tumors),clinical efficacy [2]
C[C@H](NC(=O)c1c(C(F)F)nn(C)c1Oc1cccc(C(F)(F)F)c1)c1ccc(C(=O)O)cc1 [AN0025],effectively reduce,strong clinical efficacy,certain single-drug effect,–
"Nc1cc(C(F)(F)F)c(-c2cc(N3CCOCC3)nc(N3CCOCC3)n2)cn1 [AN2025, Buparlisib]",–,–,–,effective
